Experimental data from ChEMBL document CHEMBL3885881, “DrugMatrix”.

Species: Rattus norvegicus
Format: toxicity, organism-based, Sprague-Dawley
Settings: in vivo, po, route oral GAVAGE, vehicle 100 % SALINE; for ABSOLUTE EOSINOPHIL / ABSOLUTE LYMPHOCYTE / ABSOLUTE MONOCYTE / ABSOLUTE SEGMENTED NEUTROPHIL / BASOPHIL / EOSINOPHIL / ERYTHROCYTE COUNT / HEMATOCRIT / HEMOGLOBIN / LEUKOCYTE COUNT / LYMPHOCYTE / MEAN CORPUSCULAR HEMOGLOBIN / MEAN CORPUSCULAR HEMOGLOBIN CONCENTRATION / MEAN CORPUSCULAR VOLUME / MONOCYTE / NEUTROPHIL / NUCLEATED RED BLOOD CELLS / PLATELET COUNT: tissue Blood; for ALANINE AMINOTRANSFERASE / ALBUMIN / ALKALINE PHOSPHATASE / ASPARTATE AMINOTRANSFERASE / BLOOD UREA NITROGEN / CARBON DIOXIDE / CHLORIDE / CHOLESTEROL / CREATINE PHOSPHOKINASE / CREATININE / GLUCOSE / LACTATE DEHYDROGENASE / LIPASE / PHOSPHORUS / POTASSIUM / SODIUM / TOTAL BILIRUBIN / TOTAL PROTEIN / URIC ACID: tissue Plasma
[1] = 0 mg/kg, 6 h, dose level Control, time 0.25 day
[2] = 0 mg/kg, 24 h, dose level Control, time 1 day
[3] = 3000 mg/kg, 6 h, dose level Low, time 0.25 day

Description: DrugMatrix - Regimen: Single

With `CCO` [ALCOHOL] the “ABSOLUTE EOSINOPHIL” value [1] was 24 CELLS/uL, the “ABSOLUTE LYMPHOCYTE” value [1] was 11958.17 CELLS/uL and the “ABSOLUTE MONOCYTE” value [1] was 398.83 CELLS/uL. The “ABSOLUTE SEGMENTED NEUTROPHIL” value [1] was 1252.33 CELLS/uL, the BASOPHIL [1] was 0% and the EOSINOPHIL [1] was 0.17%. The “ERYTHROCYTE COUNT” value [1] was 5.37 x10E6/uL, the HEMATOCRIT [1] was 35.6% and the HEMOGLOBIN [1] was 13.05 G/DL. The “LEUKOCYTE COUNT” value [1] was 13.63 x10E3/uL, the LYMPHOCYTE [1] was 87.67% and the “MEAN CORPUSCULAR HEMOGLOBIN” value [1] was 24.28 pg. For the same compound, the “MEAN CORPUSCULAR HEMOGLOBIN CONCENTRATION” value [1] was 36.67 G/DL, the “MEAN CORPUSCULAR VOLUME” value [1] was 66.28 fL and the MONOCYTE [1] was 2.83%. The NEUTROPHIL [1] was 9.33%, the “NUCLEATED RED BLOOD CELLS” value [1] was 0 /100WBC and the “PLATELET COUNT” value [1] was 947.83 x10E3/uL. For the same compound, the “ALANINE AMINOTRANSFERASE” value [1] was 51 u/L, the ALBUMIN [1] was 4.02 G/DL and the “ALKALINE PHOSPHATASE” value [1] was 312.33 u/L. For the same compound, the “ASPARTATE AMINOTRANSFERASE” value [1] was 98.17 u/L, the “BLOOD UREA NITROGEN” value [1] was 9.5 mg/dL and the “CARBON DIOXIDE” value [1] was 18.83 mmol/L. For the same compound, the CHLORIDE [1] was 103.5 MEQ/L, the CHOLESTEROL [1] was 69.5 mg/dL and the “CREATINE PHOSPHOKINASE” value [1] was 580.17 u/L. The CREATININE [1] was 0.53 mg/dL, the GLUCOSE [1] was 175.67 mg/dL and the “LACTATE DEHYDROGENASE” value [1] was 295.5 u/L. The LIPASE [1] was 8.17 u/L, the PHOSPHORUS [1] was 14.12 mg/dL and the POTASSIUM [1] was 5.77 MEQ/L. The SODIUM [1] was 144.13 MEQ/L, the “TOTAL BILIRUBIN” value [1] was 0.12 mg/dL and the “TOTAL PROTEIN” value [1] was 4.87 G/DL. For the same compound, the “URIC ACID” value [1] was 2.25 mg/dL, the “ABSOLUTE EOSINOPHIL” value [2] was 0 CELLS/uL and the “ABSOLUTE LYMPHOCYTE” value [2] was 12232.83 CELLS/uL. For the same compound, the “ABSOLUTE MONOCYTE” value [2] was 20.33 CELLS/uL, the “ABSOLUTE SEGMENTED NEUTROPHIL” value [2] was 780.17 CELLS/uL and the BASOPHIL [2] was 0%. The EOSINOPHIL [2] was 0%, the “ERYTHROCYTE COUNT” value [2] was 5.18 x10E6/uL and the HEMATOCRIT [2] was 33.48%. For the same compound, the HEMOGLOBIN [2] was 13.22 G/DL, the “LEUKOCYTE COUNT” value [2] was 13.03 x10E3/uL and the LYMPHOCYTE [2] was 93.33%. The “MEAN CORPUSCULAR HEMOGLOBIN” value [2] was 25.57 pg, the “MEAN CORPUSCULAR HEMOGLOBIN CONCENTRATION” value [2] was 39.52 G/DL and the “MEAN CORPUSCULAR VOLUME” value [2] was 64.65 fL. The MONOCYTE [2] was 0.17%, the NEUTROPHIL [2] was 6.5% and the “NUCLEATED RED BLOOD CELLS” value [2] was 0 /100WBC. For the same compound, the “PLATELET COUNT” value [2] was 931.5 x10E3/uL, the “ALANINE AMINOTRANSFERASE” value [2] was 60.83 u/L and the ALBUMIN [2] was 4.18 G/DL. The “ALKALINE PHOSPHATASE” value [2] was 283.33 u/L, the “ASPARTATE AMINOTRANSFERASE” value [2] was 80.5 u/L and the “BLOOD UREA NITROGEN” value [2] was 11.83 mg/dL. For the same compound, the “CARBON DIOXIDE” value [2] was 35.33 mmol/L, the CHLORIDE [2] was 98.5 MEQ/L and the CHOLESTEROL [2] was 80 mg/dL. For the same compound, the “CREATINE PHOSPHOKINASE” value [2] was 181.83 u/L, the CREATININE [2] was 0.2 mg/dL and the GLUCOSE [2] was 142.67 mg/dL. The “LACTATE DEHYDROGENASE” value [2] was 65.5 u/L, the LIPASE [2] was 9.83 u/L and the PHOSPHORUS [2] was 9.82 mg/dL. For the same compound, the POTASSIUM [2] was 5.69 MEQ/L, the SODIUM [2] was 143.35 MEQ/L and the “TOTAL BILIRUBIN” value [2] was 0.15 mg/dL. For the same compound, the “TOTAL PROTEIN” value [2] was 6.2 G/DL, the “URIC ACID” value [2] was 0.42 mg/dL and the “ABSOLUTE EOSINOPHIL” value [3] was 17.33 CELLS/uL. The “ABSOLUTE LYMPHOCYTE” value [3] was 12297.17 CELLS/uL, the “ABSOLUTE MONOCYTE” value [3] was 395.33 CELLS/uL and the “ABSOLUTE SEGMENTED NEUTROPHIL” value [3] was 1356.83 CELLS/uL. For the same compound, the BASOPHIL [3] was 0%, the EOSINOPHIL [3] was 0.17% and the “ERYTHROCYTE COUNT” value [3] was 5.49 x10E6/uL. For the same compound, the HEMATOCRIT [3] was 36.33%, the HEMOGLOBIN [3] was 13.27 G/DL and the “LEUKOCYTE COUNT” value [3] was 14.07 x10E3/uL. The LYMPHOCYTE [3] was 87%, the “MEAN CORPUSCULAR HEMOGLOBIN” value [3] was 24.23 pg and the “MEAN CORPUSCULAR HEMOGLOBIN CONCENTRATION” value [3] was 36.55 G/DL. The “MEAN CORPUSCULAR VOLUME” value [3] was 66.38 fL, the MONOCYTE [3] was 2.67% and the NEUTROPHIL [3] was 10.17%. For the same compound, the “NUCLEATED RED BLOOD CELLS” value [3] was 0 /100WBC, the “PLATELET COUNT” value [3] was 1109.83 x10E3/uL and the “ALANINE AMINOTRANSFERASE” value [3] was 45.5 u/L. The ALBUMIN [3] was 4.27 G/DL, the “ALKALINE PHOSPHATASE” value [3] was 279.17 u/L and the “ASPARTATE AMINOTRANSFERASE” value [3] was 96.17 u/L. For the same compound, the “BLOOD UREA NITROGEN” value [3] was 11 mg/dL, the “CARBON DIOXIDE” value [3] was 19.5 mmol/L and the CHLORIDE [3] was 105.33 MEQ/L. The CHOLESTEROL [3] was 63.33 mg/dL, the “CREATINE PHOSPHOKINASE” value [3] was 339.67 u/L and the CREATININE [3] was 0.17 mg/dL. For the same compound, the GLUCOSE [3] was 173 mg/dL, the “LACTATE DEHYDROGENASE” value [3] was 354.67 u/L and the LIPASE [3] was 10 u/L. The PHOSPHORUS [3] was 15.83 mg/dL, the POTASSIUM [3] was 6.29 MEQ/L and the SODIUM [3] was 146.3 MEQ/L. The “TOTAL BILIRUBIN” value [3] was 0.0667 mg/dL, the “TOTAL PROTEIN” value [3] was 5.62 G/DL and the “URIC ACID” value [3] was 2.12 mg/dL.
